We go through 8 compounds from ChEMBL document CHEMBL3585332, “Antimalarial Isocyano and Isothiocyanato Sesquiterpenes with Tri- and Bicyclic Skeletons from the Nudibranch Phyllidia ocellata” (J Nat Prod, 2015).

A value given as a limit tells only on which side of the number the result lay.

Experiment [1] concerns Plasmodium falciparum. Kind of experiment: Antimalarial activity against drug-resistant asynchronous Plasmodium falciparum Dd2 infected in erythrocytes assessed as parasite growth inhibition at 10 uM after 48 hrs by [3H]-hypoxanthine incorporation assay relative to control. It is filed as functional. Particulars: read-out: GI.
Experiment [2] relates to Plasmodium falciparum. As to the kind of experiment: Antimalarial activity against drug-resistant asynchronous Plasmodium falciparum Dd2 infected in erythrocytes assessed as parasite growth inhibition after 48 hrs by [3H]-hypoxanthine incorporation assay. Format: functional, organism-based.
In experiment [3] the test system is Plasmodium falciparum. Kind of experiment: Antimalarial activity against chloroquine-sensitive asynchronous Plasmodium falciparum 3D7 infected in erythrocytes assessed as parasite growth inhibition after 48 hrs by [3H]-hypoxanthine incorporation assay. It is filed as functional, organism-based.
Experiment [4] can be described thus: Selectivity ratio of IC50 for human NFF to IC50 for drug-resistant asynchronous Plasmodium falciparum Dd2.
Experiment [5] in a line: Selectivity ratio of IC50 for human NFF to IC50 for chloroquine-sensitive asynchronous Plasmodium falciparum 3D7.

In the case of `[C-]#[N+][C@@H]1CC(C)(C)[C@@H]2CC[C@@]3(C)CCC[C@@]12C3`, the inhibition of growth at 10 µM in the experiment with Plasmodium falciparum [1] stood at 98.3%. Moreover, the IC50 stood at 830 nM in the experiment with Plasmodium falciparum [2] and 290 nM in the experiment on Plasmodium falciparum [3]. Also, the Ratio IC50 in experiment [4] and in experiment [5] was 45 in each case.
As to `[C-]#[N+][C@]1(C)[C@H](C)C[C@@H]2C[C@H](C)[C@H]3CC[C@](C)([N+]#[C-])[C@H]4CC[C@H]1[C@@H]2[C@H]34` [DIISOCYANOADOCIANE], the inhibition of growth at 10 µM in the experiment with Plasmodium falciparum [1] stood at 98.3%.
As to `[C-]#[N+][C@@H]1[C@H]2C(=C)CCC[C@]2(C)CC[C@H]1C(C)C`, the inhibition of growth at 10 µM in the experiment on Plasmodium falciparum [1] was found to be 98.3%.
As to `[C-]#[N+][C@@H]1CCC(C)=C[C@@H]2[C@@H](C(C)C)CC[C@]21C`, the inhibition of growth at 10 µM with Plasmodium falciparum [1] is 98.3%. Moreover, the half-maximal inhibitory concentration (IC50) in the experiment with Plasmodium falciparum [2] came to 870 nM; in the experiment with Plasmodium falciparum [3], 260 nM. Further, the Ratio IC50 in experiment [4] and in experiment [5] was 45 throughout.
`[C-]#[N+]C1=CC(C)(C)[C@@H]2CC[C@@]3(C)CCC[C@@]12C3`: the inhibition of growth at 10 µM in the experiment with Plasmodium falciparum [1] was determined as 98.3%. The IC50 in the experiment with Plasmodium falciparum [2] stood at 360 nM; in the experiment with Plasmodium falciparum [3] it was 300 nM. The Ratio IC50 in experiment [4] and in experiment [5] was 45 throughout.
For `CC1(C)C[C@@H]2[C@H]1CC[C@@]1(C)CCC[C@]2(N=C=S)C1`, the inhibition of growth at 10 µM with Plasmodium falciparum [1] is < 50%. Also, the IC50 in the experiment with Plasmodium falciparum [3] was > 10000 nM.
For the compound `[C-]#[N+][C@@H]1[C@H](C(C)C)CC[C@@H](C)[C@@]12C=C(C)CC2` [AXISONITRILE 3], in the experiment with Plasmodium falciparum [1], the inhibition of growth at 10 µM stood at 98.3%.
As to `CC1(C)C=C(NC=O)[C@]23CCC[C@](C)(CC[C@@H]12)C3`, the inhibition of growth at 10 µM in the experiment on Plasmodium falciparum [1] is < 50%. The IC50 with Plasmodium falciparum [3] was > 10000 nM.

Usually IC50 stands for the point on the concentration scale where inhibition reaches its midpoint.
